Reference: patent US20240307561A1, “RA[…] INHIBITOR CONJUGATES FOR CANCER TREATMENT” (DUKE UNIVERSITY, priority 2021, published 2024)
Where two headings read alike, the source gives them in different places.

Key:
PARP-1 = PARP-1 (Homo sapiens, UniProt P09874); settings: release of PARP-1 from DNA; cited from earlier work
PSMA^+ PIP cells [1] = assay: Subcellular fractionation in PSMA+ PIP cells; type: cell-based; settings: 1 h
Procedure: Subcellular fractionation of [^131I]PARP-PSMA combo agent 13 in PSMA+ PIP cells was determined using The Subcellular Protein Fractionation Kit for Cultured Cells (Number 78840) purchased from Thermo Scientific. PIP Cells (5 million) were incubated with […] of [^131I] 13 in 1.5 ml tubes with a final incubation volume of 500 μL. Stepwise separation and preparation of cytoplasmic, membrane, nuclear soluble, chromatin-bound and cytoskeletal protein extracts from PSMA^+ PIP cells were achieved by following the protocol provided by Thermo Scientific. The following groups of experiments were performed: • 1. ([^131I]PARP-PSMA combo agent 13. • 2. ([^131I]PARP-PSMA combo agent 13+2-PMPA blocking agent (680 μM) • 3. ([^131I]PARP-PSMA combo agent 13+Olaparib blocking agent (6.8 mM) • 4. ([^131I]PARP-PSMA combo agent 13+2-PMPA blocking agent (6.8 mM)+Olaparib blocking agent (6.8 mM)

PSMA^+ PIP cells [2] = assay: PSMA-specific uptake and internalization in PIP cells; type: cell-based; settings: for Total cell-associated activity (percentage of input dose): 37° C., 5×10^5 PIP cells
Procedure: PSMA-specific uptake and internalization of [^131I]PARP-PSMA combo agent 13 was determined by incubation with 5×10^5 PIP cells in triplicate in the absence or presence of 200 μM 2-PMPA at 37° C. for 0.25-2 h. After removing the unbound activity-containing medium, the cells were washed with 50 mM glycine, pH 2.8 and finally, cells were lysed with 1M NaOH. Radioactivity in the supernatants, glycine wash (membrane-bound) and lysate (internalized) fractions was counted and percentage of input dose calculated. […] Total cell-associated activity was 18.7±1.0%, 30.0±0.9%, 31.8±1.0 and 37.9±0.6% at 15, 30, 60, and 120 min, respectively.

PIP cells = settings: cited from earlier work
[3] = + 2-PMPA (6.8 mM) + Olaparib (6.8 mM) blocking agents
[4] = + 2-PMPA blocking agent (680 μM)
[5] = + Olaparib blocking agent (6.8 mM)

Chain of PARP-1 (P09874 whole entry): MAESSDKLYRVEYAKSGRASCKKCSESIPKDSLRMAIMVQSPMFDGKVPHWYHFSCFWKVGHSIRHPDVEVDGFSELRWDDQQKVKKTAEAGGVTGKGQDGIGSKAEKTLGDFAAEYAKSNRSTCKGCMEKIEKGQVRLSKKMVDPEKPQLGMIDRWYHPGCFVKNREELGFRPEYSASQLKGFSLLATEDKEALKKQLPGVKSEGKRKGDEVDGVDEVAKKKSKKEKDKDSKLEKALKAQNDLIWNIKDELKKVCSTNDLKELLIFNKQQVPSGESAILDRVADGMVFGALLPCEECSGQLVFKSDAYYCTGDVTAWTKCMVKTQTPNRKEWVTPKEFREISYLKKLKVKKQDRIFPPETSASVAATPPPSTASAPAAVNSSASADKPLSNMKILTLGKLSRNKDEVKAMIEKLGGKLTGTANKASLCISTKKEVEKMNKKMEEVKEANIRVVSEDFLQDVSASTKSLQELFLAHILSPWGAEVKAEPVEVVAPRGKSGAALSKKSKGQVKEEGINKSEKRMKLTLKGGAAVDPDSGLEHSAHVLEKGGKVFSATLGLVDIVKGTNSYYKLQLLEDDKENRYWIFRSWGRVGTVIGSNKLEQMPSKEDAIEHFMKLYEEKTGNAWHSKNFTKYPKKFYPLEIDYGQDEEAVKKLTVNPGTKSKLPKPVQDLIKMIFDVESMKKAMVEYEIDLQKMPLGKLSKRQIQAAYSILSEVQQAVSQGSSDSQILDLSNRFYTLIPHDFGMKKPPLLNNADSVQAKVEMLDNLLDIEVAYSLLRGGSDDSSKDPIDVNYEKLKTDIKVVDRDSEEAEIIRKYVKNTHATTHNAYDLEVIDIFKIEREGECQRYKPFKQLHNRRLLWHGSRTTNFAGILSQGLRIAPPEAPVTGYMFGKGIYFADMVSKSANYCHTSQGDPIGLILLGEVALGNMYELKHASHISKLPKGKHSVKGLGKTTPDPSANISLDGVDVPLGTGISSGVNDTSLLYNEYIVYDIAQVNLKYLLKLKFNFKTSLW

C[C@]1(c2nc3c(C(N)=O)cccc3[nH]2)CCCN1 [veliparib]
dissociation rate constant (kd) (PARP-1): 0.00408 s⁻¹

O=C(O)CC[C@H](NC(=O)N[C@@H](CCCCNC(=O)CCOCCOCCOCCNC(=O)c1cc([131I])cc(C(=O)N2CCN(C(=O)c3cc(Cc4n[nH]c(=O)c5ccccc45)ccc3F)CC2)c1)C(=O)O)C(=O)O [[^131I]PARP-PSMA combo agent 13, (20S,24S)-1-(3-(4-(2-fluoro-5-((4-oxo-3,4-dihydrophthalazin-1-yl)methyl)benzoyl)piperazine-1-carbonyl)-5-[^131I]iodophenyl)-1,14,22-trioxo-5,8,11-trioxa-2,15,21,23-tetraazahexacosane-20,24,26-tricarboxylic Acid]
Cells Left Over (PSMA^+ PIP cells [1]; [3]): 0.02%
Cytoplasmic (PSMA^+ PIP cells [1]; [3]): 2.13%
Cytoskeletal Protein (PSMA^+ PIP cells [1]; [3]): 0.02%
Membrane (PSMA^+ PIP cells [1]; [3]): 1.44%
Micrococcal Nuclease (PSMA^+ PIP cells [1]; [3]): 0.03%
Nuclear Soluble (PSMA^+ PIP cells [1]; [3]): 0.14%
Supernatant (Wash Out) (PSMA^+ PIP cells [1]; [3]): 87.21%
Total Cellular Uptake (PSMA^+ PIP cells [1]; [3]): 3.78%
Cells Left Over (PSMA^+ PIP cells [1]; [4]): 0.06%
Cytoplasmic (PSMA^+ PIP cells [1]; [4]): 1.47%
Cytoskeletal Protein (PSMA^+ PIP cells [1]; [4]): 0.03%
Membrane (PSMA^+ PIP cells [1]; [4]): 3.23%
Micrococcal Nuclease (PSMA^+ PIP cells [1]; [4]): 0.09%
Nuclear Soluble (PSMA^+ PIP cells [1]; [4]): 0.11%
Supernatant (Wash Out) (PSMA^+ PIP cells [1]; [4]): 86.85%
Total Cellular Uptake (PSMA^+ PIP cells [1]; [4]): 4.99%
Cells Left Over (PSMA^+ PIP cells [1]; [5]): 0.07%
Cytoplasmic (PSMA^+ PIP cells [1]; [5]): 3.09%
Cytoskeletal Protein (PSMA^+ PIP cells [1]; [5]): 0.15%
Membrane (PSMA^+ PIP cells [1]; [5]): 9.00%
Micrococcal Nuclease (PSMA^+ PIP cells [1]; [5]): 0.14%
Nuclear Soluble (PSMA^+ PIP cells [1]; [5]): 1.01%
Supernatant (Wash Out) (PSMA^+ PIP cells [1]; [5]): 82.42%
Total Cellular Uptake (PSMA^+ PIP cells [1]; [5]): 13.44%
Cells Left Over (PSMA^+ PIP cells [1]; no blocking agent): 0.45%
Cytoplasmic (PSMA^+ PIP cells [1]; no blocking agent): 2.50%
Cytoskeletal Protein (PSMA^+ PIP cells [1]; no blocking agent): 0.28%
Membrane (PSMA^+ PIP cells [1]; no blocking agent): 20.70%
Micrococcal Nuclease (PSMA^+ PIP cells [1]; no blocking agent): 0.59%
Nuclear Soluble (PSMA^+ PIP cells [1]; no blocking agent): 2.17%
Supernatant (Wash Out) (PSMA^+ PIP cells [1]; no blocking agent): 73.31%
Total Cellular Uptake (PSMA^+ PIP cells [1]; no blocking agent): 26.69%
Total cell-associated activity (percentage of input dose) (PSMA^+ PIP cells [2]; 15 min): 18.7±1.0%
Total cell-associated activity (percentage of input dose) (PSMA^+ PIP cells [2]; 30 min): 30.0±0.9%
Total cell-associated activity (percentage of input dose) (PSMA^+ PIP cells [2]; 60 min): 31.8±1.0%
Total cell-associated activity (percentage of input dose) (PSMA^+ PIP cells [2]; 120 min): 37.9±0.6%
Uptake blocked by 2-PMPA (PSMA^+ PIP cells [2]; presence of 200 μM 2-PMPA): > 80%

COC(=O)c1cnc(N2CCN(C(=O)c3ccc(-c4nc5c(C(N)=O)cccc5[nH]4)cc3)CC2)nc1 [UKTT15]
dissociation rate constant (kd) (PARP-1): 0.00185 s⁻¹

O=C(O)CC[C@H](NC(=O)N[C@@H](CCCCNC(=O)c1ccc([131I])cc1)C(=O)O)C(=O)O [[^131I]DCIBzL]
Total cell-associated activity (PIP cells; 30 min): 5.0±0.3%
Total cell-associated activity (PIP cells; 60 min): 9.3±1.5%
Total cell-associated activity (PIP cells; 120 min): 16.8±1.0%
